Data taken from patent US8865688B2, “Compositions and methods for treatment of bowel diseases with granulated mesalamine” (priority 2008, dated 2014).
Read-outs that look alike come from different tables or passages of the source.

Assays:
CYP1A2 = target: T1, CYP1A2 (Homo sapiens, UniProt P05177); assay: In vitro drug-drug interaction study, human liver microsomes; type: in vitro ADME
T1 construct: In an in vitro study using human liver microsomes; from tissue; host or cells: human liver microsomes
T1 sequence (P05177 1-516): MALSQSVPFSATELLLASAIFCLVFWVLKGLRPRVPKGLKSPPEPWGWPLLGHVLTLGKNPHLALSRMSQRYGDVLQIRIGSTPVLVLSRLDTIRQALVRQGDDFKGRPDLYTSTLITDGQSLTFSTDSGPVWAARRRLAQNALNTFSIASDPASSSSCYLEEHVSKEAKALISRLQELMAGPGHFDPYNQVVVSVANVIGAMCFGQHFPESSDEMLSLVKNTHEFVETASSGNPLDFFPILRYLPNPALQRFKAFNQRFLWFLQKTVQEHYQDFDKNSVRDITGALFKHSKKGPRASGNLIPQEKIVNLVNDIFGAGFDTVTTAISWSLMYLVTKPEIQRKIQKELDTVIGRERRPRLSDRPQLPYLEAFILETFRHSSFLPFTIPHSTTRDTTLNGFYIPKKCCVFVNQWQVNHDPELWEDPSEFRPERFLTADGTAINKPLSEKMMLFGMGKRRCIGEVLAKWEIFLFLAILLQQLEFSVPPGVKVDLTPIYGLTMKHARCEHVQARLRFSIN

CYP2D6 = CYP2D6 (Homo sapiens, UniProt P10635); assay: as above; type: in vitro ADME
[1] = human, in vivo, 1600 mg
[2] = Single and multiple oral dose pharmacokinetics of 1.5 g granulated mesalamine formulation, crossover, healthy subjects, fasting; conditions: for AUC(0-t): AUC0-24, plasma, n = 24; for AUC(0-t) / Cmax: mean ±SD; for Tmax: median (range)
clinical = conditions: human, in vivo, 1600 mg
in vitro = conditions: plasma
[3] = Detection in human breast milk; conditions: in vivo
CYP2C19 = CYP2C19 (Homo sapiens, UniProt P33261); assay: In vitro drug-drug interaction study, human liver microsomes; type: in vitro ADME
CYP3A4 = CYP3A4 (Homo sapiens, UniProt P08684); assay: as above; type: in vitro ADME
[4] = Effect of high fat meal on absorption of 1.6 g mesalamine granules in sachet, crossover, healthy subjects; type: in vivo, human
[5] = Steady state pharmacokinetics, 3 treatments of 4 days: Asacol 800 mg BID, granulated mesalamine formulation 800 mg BID and 1600 mg QD; type: in vivo, human; conditions: for AUC / Cmax / Tmax: human, plasma, oral; for Tmax: median (range), read-out: Tmax
Description: In a study of 3 treatments in 3 study periods, each separated by a minimum washout of 7 days, treatments were administered orally, and were as follows:
Subjects received treatments A, B, and C, with each administered during one of the three 4-day study treatment periods.
Each treatment regimen lasted for 4 days and was followed by at least a 7 day washout period.

CYP2C9 = CYP2C9 (Homo sapiens, UniProt P11712); assay: In vitro drug-drug interaction study, human liver microsomes; type: in vitro ADME
[6] = human, plasma, oral, 1.5 g, multiple dose 1.5 g QD, after 7 days
[7] = human, plasma, oral, 1.5 g, single dose 1.5 g
[8] = MP 1600 mg QD versus MP 800 mg BID, geometric mean ratio

Sequence of CYP2C9 (P11712 whole entry): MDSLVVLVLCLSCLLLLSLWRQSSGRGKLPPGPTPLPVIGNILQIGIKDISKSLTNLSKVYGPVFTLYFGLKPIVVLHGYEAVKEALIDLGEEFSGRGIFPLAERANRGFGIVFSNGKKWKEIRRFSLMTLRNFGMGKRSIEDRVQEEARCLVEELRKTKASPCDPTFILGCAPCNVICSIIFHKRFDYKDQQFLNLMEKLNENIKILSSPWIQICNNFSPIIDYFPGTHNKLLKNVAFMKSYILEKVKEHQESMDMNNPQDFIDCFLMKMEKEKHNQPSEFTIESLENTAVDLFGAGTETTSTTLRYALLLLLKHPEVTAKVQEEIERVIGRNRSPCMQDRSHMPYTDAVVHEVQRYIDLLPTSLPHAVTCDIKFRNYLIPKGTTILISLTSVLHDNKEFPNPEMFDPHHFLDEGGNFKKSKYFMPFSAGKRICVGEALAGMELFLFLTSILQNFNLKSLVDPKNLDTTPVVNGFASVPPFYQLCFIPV
Sequence of CYP2C19 (P33261 whole entry): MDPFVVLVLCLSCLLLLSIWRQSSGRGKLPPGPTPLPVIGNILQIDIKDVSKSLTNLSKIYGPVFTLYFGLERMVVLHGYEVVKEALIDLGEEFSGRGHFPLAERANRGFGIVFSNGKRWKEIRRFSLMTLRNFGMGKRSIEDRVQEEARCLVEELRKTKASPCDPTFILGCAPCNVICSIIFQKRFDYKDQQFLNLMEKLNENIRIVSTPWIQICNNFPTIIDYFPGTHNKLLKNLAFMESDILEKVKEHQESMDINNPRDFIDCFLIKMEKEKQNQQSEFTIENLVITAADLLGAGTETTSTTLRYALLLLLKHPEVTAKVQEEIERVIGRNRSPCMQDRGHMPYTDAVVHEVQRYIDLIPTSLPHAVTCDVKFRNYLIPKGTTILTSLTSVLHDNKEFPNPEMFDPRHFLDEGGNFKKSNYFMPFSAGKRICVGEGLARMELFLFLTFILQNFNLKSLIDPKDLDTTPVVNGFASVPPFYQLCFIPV
Sequence of CYP3A4 (P08684 whole entry): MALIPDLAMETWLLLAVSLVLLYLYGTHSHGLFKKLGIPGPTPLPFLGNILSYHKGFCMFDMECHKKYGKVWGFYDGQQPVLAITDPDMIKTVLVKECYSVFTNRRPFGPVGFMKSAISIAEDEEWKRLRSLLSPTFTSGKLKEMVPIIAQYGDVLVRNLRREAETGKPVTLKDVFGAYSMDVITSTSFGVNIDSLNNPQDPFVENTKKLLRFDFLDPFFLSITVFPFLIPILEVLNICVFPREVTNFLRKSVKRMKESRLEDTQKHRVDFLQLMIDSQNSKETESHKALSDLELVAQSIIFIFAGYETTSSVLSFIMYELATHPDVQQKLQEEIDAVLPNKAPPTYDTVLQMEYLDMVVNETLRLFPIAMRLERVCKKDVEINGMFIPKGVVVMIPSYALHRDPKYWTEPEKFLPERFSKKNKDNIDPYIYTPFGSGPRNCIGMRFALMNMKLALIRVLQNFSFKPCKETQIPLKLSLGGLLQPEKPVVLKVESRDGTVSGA
Sequence of CYP2D6 (P10635 whole entry): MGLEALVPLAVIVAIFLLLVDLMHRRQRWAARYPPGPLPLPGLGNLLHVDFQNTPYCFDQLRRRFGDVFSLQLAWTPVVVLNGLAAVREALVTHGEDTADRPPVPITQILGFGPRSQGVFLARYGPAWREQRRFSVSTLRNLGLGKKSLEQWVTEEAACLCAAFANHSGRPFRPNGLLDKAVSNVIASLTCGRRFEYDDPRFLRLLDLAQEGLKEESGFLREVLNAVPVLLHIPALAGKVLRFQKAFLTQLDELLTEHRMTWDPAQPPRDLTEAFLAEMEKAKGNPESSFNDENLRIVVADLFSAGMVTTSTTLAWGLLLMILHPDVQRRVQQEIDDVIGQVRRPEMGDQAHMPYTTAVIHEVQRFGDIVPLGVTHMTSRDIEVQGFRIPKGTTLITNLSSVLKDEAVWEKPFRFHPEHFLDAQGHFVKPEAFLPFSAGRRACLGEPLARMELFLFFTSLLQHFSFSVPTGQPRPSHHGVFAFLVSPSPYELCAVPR

## CC(=O)Nc1ccc(O)c(C(=O)O)c1 [N-Ac-5-ASA, N-acetyl-5-aminosalicylic acid]
CYP1A2
  Inhibition of CYP1A2: not to inhibit
CYP2D6
  Inhibition of CYP2D6: not to inhibit
[1]
  T1/2: 10.05 h
[2]; 1.5 g granulated mesalamine formulation
  Increase in systemic exposure (AUC0-24) at steady state compared with a single dose: 1.7 fold
[2]; human, plasma, oral, 1.5 g
  AUC(0-inf): 51000 ± 23000 ng·h/mL
[2]; [6]
  AUC(0-t): 37000 ± 9000 ng·h/mL
  Tmax: 5 h
[2]; human, plasma, oral, 1.5 g, single dose 1.5 g granulated mesalamine formulation, fasting
  AUC(0-t): 26000 ± 6000 ng·h/mL
[2]; human, plasma, oral, 1.5 g, plasma, multiple dose 1.5 g QD, after 7 days
  Cmax: 3400 ± 900 ng/mL
[2]; [7]
  Cmax: 2800 ± 800 ng/mL
  Tmax: 4 h
[2]; human, plasma, oral, 1.5 g, Mean half-lives, following single and multiple doses of granulated mesalamine formulation
  half-life: 12 to 14 h
[2]; human, plasma, oral, 1.5 g, t1/2, multiple dose 1.5 g QD, after 7 days, harmonic mean (pseudo SD)
  half-life: 14 ± 10 h
[2]; human, plasma, oral, 1.5 g, t1/2, single dose 1.5 g, harmonic mean (pseudo SD)
  half-life: 12 ± 11 h
clinical
  half-life: 10.1 h
In vitro
  fraction unbound at 2.5 μg/mL: 0.22
[3]
  Concentration detected in human breast milk: higher concentrations
CYP2C19
  Inhibition of CYP2C19: not to inhibit
CYP3A4
  Inhibition of CYP3A4: not to inhibit
[4]; 1.6 g granulated mesalamine (2×0.8 g)
  Tmax following a high-fat meal: prolonged
[4]; 1.6 g granules
  Effect of high fat meal on overall (rate and) extent of absorption: not affected
[4]; 1.6 g granules, fed vs fasted, 80%:125% rule
  Effect of high fat meal on plasma Cmax: equivalent
[5]; [8]
  AUC C/B Ratio (90% CI): 93 (78, 112)
  Cmax C/B Ratio (90% CI): 118 (98, 143)
[5]; granulated mesalamine formulation
  Steady state plasma concentrations as measured by Cmax, QD compared to BID: higher
[5]; granulated mesalamine formulation 1600 mg QD vs 800 mg BID
  Systemic exposure, QD versus BID regimen: comparable
[5]; granulated mesalamine formulation administered BID
  Time to maximum drug concentrations, mean: 11.68 h
[5]; granulated mesalamine formulation administered QD
  Time to maximum drug concentrations, mean: 5.21 h
[5]; granulated mesalamine formulation, steady state
  Cmax ratio, QD compared to BID: 118%
[5]; 800 mg, AUC, AUCC, Day 4, after Asacol 800 mg BID, converted from μmol * h/L
  AUC: 30700 ± 22200 ng·h/mL
[5]; 800 mg, AUCC, Day 4, after MP 800 mg BID, converted from μmol * h/L, read-out: AUC
  AUC: 46400 ± 15400 ng·h/mL
[5]; 800 mg, AUCC, Day 4, after Treatment A Asacol 800 mg BID, mean ± SD, read-out: AUC
  AUC: 158 ± 114 µM·h
[5]; 800 mg, AUCC, Day 4, after Treatment B MP 800 mg BID, mean ± SD, read-out: AUC
  AUC: 238 ± 79.1 µM·h
[5]; 800 mg, Day 4, after Asacol 800 mg BID, converted from μmol/L, mean ± SD
  Cmax: 2340 ± 1800 ng/mL
[5]; 800 mg, Day 4, after MP 800 mg BID, converted from μmol/L, mean ± SD
  Cmax: 3610 ± 1230 ng/mL
[5]; 800 mg, Day 4, after Treatment A Asacol 800 mg BID, n = 28, mean ± SD
  Cmax: 12 ± 9.22 µM
[5]; 800 mg, Day 4, after Treatment B MP 800 mg BID, n = 28, mean ± SD
  Cmax: 18.5 ± 6.31 µM
[5]; 1600 mg, AUC0-24, Day 4, after MP 1600 mg QD, converted from μmol * h/L, read-out: AUC
  AUC: 45800 ± 19700 ng·h/mL
[5]; 1600 mg, AUC0-24, Day 4, after Treatment C MP 1600 mg QD, mean ± SD, read-out: AUC
  AUC: 235 ± 101 µM·h
[5]; 1600 mg, Day 4, after MP 1600 mg QD, converted from μmol/L, mean ± SD
  Cmax: 4500 ± 1820 ng/mL
[5]; 1600 mg, Day 4, after Treatment C MP 1600 mg QD, n = 28, mean ± SD
  Cmax: 23.1 ± 9.35 µM
[5]; Day 4, after MP 800 mg BID, time from first dose
  Tmax: 16 h
[5]; Day 4, after MP 1600 mg QD
  Tmax: 3 h
CYP2C9
  Inhibition of CYP2C9: not to inhibit
